# In patent EP3351262A1, “CURAGLUTIDE FOR IN TREATMENT OF PREDIABETES, DIABETES, OBESITY AND METABOLIC DISEASES ASSOCIATED THERETO” (Istanbul Universitesi Rektorlugu, priority 2016, dated 2018):
# Assays:
# [1] = test system: INS-1 cells; experiment: Lactate dehydrogenase (LDH) release cytotoxicity test (necrosis); assay type: cell-based, rat; conditions: for cytotoxicity value percentages: 24 h, positive control (lysis) 100%; for % cytotoxicity values: LDH secretion
# Method: Lactate dehydrogenase (LDH) release test is based on the measurement of the activity of lactate dehydrogenase which is a cytoplasmic enzyme released from the dead cells or cells with damaged plasma membrane and it is used in cellular cytotoxicity assessment. The cytotoxic effect of palmitic acid on […] pancreatic INS-1 cell strain was determined by LDH activity released from the damaged cells and for this purpose Cytotoxicity Determination Kit, LDH (Roche Molecular Marker) was used.
# In LDH test, as well as the experimental groups wherein palmitic acid was applied, negative control group for spontaneous LDH release from the cells and positive control group for LDH release were studied. Since palmitic acid in 0.5, 0.75 and 1 mM doses decreases the cell viability, these doses and the control group of the highest dose were studied. The cells were removed by trypsin-EDTA and centrifuged, after growth in 75 cm^2 flask. The cells were suspended in medium in a way such that there would be 50 000 cells in 100 µl, and 100 µl cell suspension was transferred into plates with 96 wells. 10 wells were studied for each of the control and experiment groups and the experiment was repeated for 3 times. After the incubation for 24 hours, the control groups were washed with PBS, and they were freshened with the medium without sodium pyruvate and beta-mercaptoethanol. The medium of the experiment groups was changed with the medium containing different concentrations of palmitic acid. Following the incubation of the cells with palmitic acid for 24 hours, LDH activity released from the cells was determined according to the instructions of the manufacturer. 5 µl lysis solution (2% Triton-X-100) was added to the wells of positive control group and the plate was incubated at 37 °C for 15 minutes. In order to measure LDH activity, the fresh reaction mixture prepared containing catalyst (Diaphorase+NAD mixture) and paint solution (Iodotetrazolium chloride (INT) and sodium lactate) was added to each of the wells. Following the incubation at room temperature for 30 minutes, the reaction was stopped by adding 50 µl stopping solution (IN HCl) to each of the wells. The plates were shaken in an orbital shaker for 10 seconds and the spectrophotometric absorbance was measured in 490 nm test wavelength and 690 nm reference wavelength. The results were determined as "cytotoxicity %". The average absorbance values of negative control were extracted from control and experiment groups and they were calculated by using the formula below by comparing control and experiment groups according to positive control group, and by assuming that positive control group is 100% cytotoxic: 100% Cytotoxicity = ((Experiment or Control Value)−(Negative Control))/((Positive Control)−(Negative Control)) × 100 [formula]
# Lactate dehydrogenase release in INS-1 cells wherein different palmitic acid doses were applied was measured using cytotoxicity kit and the results are shown in Figure 4.
# Protective and therapeutic effect of 10 nM curaglutide on necrosis is shown in Figure 10 by the evaluation of LDH secretion at 3 and 4 mM doses in INS-1 beta cells. According to the results, in INS-1 beta cells % cytotoxicity values are 48.2±2 in the group where 3 mM dose (necrotic dose) of palmitic acid was administered, 11.6±2.9 in the group where 10 nM curaglutide was administered as a protective against necrotic dose, 11.6±4.8 in the group where 10 nM curaglutide was supplied as a curative agent in necrotic dose, 81.3±5.9 in the group where 4 mM dose of palmitic acid was administered, […] in the group where curaglutide was administered as a protective against 4 mM palmitic acid, 68.2±7.2 in the group where 10 nM curaglutide was administered as therapeutic at 4 mM dose of palmitic acid. As compared to the control group, statistically meaningful results were obtained in both doses in terms of protective effect (p<0,0001). […]
# [2] = target: dipeptidyl peptidase IV (DPP-IV) (Homo sapiens, UniProt P27487); conditions: proteolytic enzyme DPP-IV; cited from earlier work
# Chain of dipeptidyl peptidase IV (DPP-IV) (P27487 whole entry, species assumed): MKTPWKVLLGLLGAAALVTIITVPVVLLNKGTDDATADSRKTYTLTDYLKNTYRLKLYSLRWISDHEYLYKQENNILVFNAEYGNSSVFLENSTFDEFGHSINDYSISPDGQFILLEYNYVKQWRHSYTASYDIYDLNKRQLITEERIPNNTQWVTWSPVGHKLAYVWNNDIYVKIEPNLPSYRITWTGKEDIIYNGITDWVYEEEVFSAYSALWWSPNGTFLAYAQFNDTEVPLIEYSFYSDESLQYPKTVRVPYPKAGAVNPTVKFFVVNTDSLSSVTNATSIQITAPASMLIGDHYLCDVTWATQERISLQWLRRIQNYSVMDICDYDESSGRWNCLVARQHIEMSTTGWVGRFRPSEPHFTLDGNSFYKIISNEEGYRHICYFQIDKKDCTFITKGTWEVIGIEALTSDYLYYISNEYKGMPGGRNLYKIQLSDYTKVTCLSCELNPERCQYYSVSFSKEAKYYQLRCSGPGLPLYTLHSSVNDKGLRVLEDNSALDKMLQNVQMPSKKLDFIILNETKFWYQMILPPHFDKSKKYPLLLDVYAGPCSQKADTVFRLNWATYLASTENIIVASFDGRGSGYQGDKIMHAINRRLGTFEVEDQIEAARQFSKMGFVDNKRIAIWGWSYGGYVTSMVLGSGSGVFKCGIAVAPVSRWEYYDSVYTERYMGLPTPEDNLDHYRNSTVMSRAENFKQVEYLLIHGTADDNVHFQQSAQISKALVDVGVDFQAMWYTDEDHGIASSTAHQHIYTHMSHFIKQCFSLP
SMILES,cytotoxicity value percentages ([1]; 1 mM palmitic acid) [%],cytotoxicity value percentages ([1]; 2 mM palmitic acid) [%],cytotoxicity value percentages ([1]; 3 mM palmitic acid (necrotic dose)) [%],cytotoxicity value percentages ([1]; 4 mM palmitic acid) [%],destruction by DPP-IV [2],"% cytotoxicity values ([1]; 10 nM curaglutide as curative agent, 3 mM palmitic acid (necrotic dose)) [%]",% cytotoxicity values ([1]; 10 nM curaglutide as protective against 3 mM palmitic acid (necrotic dose)) [%],% cytotoxicity values ([1]; 10 nM curaglutide as therapeutic at 4 mM palmitic acid) [%],% cytotoxicity values ([1]; curaglutide as protective against 4 mM palmitic acid) [%]
CCCCCCCCCCCCCCCC(=O)O [palmitic acid],1±0,13.5±2.4,48.2±2,81.3±5.9,,,,,
CC[C@H](C)[C@H](NC(=O)[C@H](Cc1ccccc1)NC(=O)[C@H](CCC(=O)O)NC(=O)[C@H](CCCCN)NC(=O)[C@H](C)NC(=O)[C@H](C)NC(=O)[C@H](CCC(N)=O)NC(=O)CNC(=O)[C@H](CCC(=O)O)NC(=O)[C@H](CC(C)C)NC(=O)[C@H](Cc1ccc(O)cc1)NC(=O)[C@H](CO)NC(=O)[C@H](CO)NC(=O)[C@@H](NC(=O)[C@H](CC(=O)O)NC(=O)[C@H](CO)NC(=O)[C@@H](NC(=O)[C@H](Cc1ccccc1)NC(=O)[C@@H](NC(=O)CNC(=O)[C@H](CCC(=O)O)NC(=O)[C@H](C)NC(=O)[C@H](Cc1c[nH]cn1)NC(C)=O)[C@@H](C)O)[C@@H](C)O)C(C)C)C(=O)N[C@@H](C)C(=O)N[C@@H](Cc1c[nH]c2ccccc12)C(=O)N[C@@H](CC(C)C)C(=O)N[C@H](C(=O)N[C@@H](CCCCN)C(N)=O)C(C)C [curaglutide],,,,,resistant to destruction by DPP-IV,11.6±4.8,11.6±2.9,68.2±7.2,45.8±6.8
